From patent US6013632A, “Compounds and their combinations for the treatment of influenza infection” (Emory University, priority 1998, dated 2000)

Assays:
[1] = system: MDCK cells; assay: Toxicity to MDCK cells at the tested concentrations; conditions: 10 mM and 30 mM
[2] = system: Influenza A/WSN strain; assay: Virus production by HA titer in influenza-infected MDCK cells; assay type: cell-based; conditions: for inhibition at 10000 µM / inhibition at 30000 µM: Influenza A virus, WSN; for Decreased virus production (HA titer): 48 hours post infection
[3] = system: Influenza A/WSN strain; assay: Plaque-forming units in supernatant of infected MDCK cells; assay type: cell-based; conditions: 10 mM, 48 h
Method: MDCK cells were cultured in 100 mm dishes until 80% confluent. Cells were washed with phosphate-buffered saline and inoculated with Influenza A/WSN strain at a multiplicity of infection of 0.05-0.1 plaque-forming units/cell in serum-free DMEM medium for 2 hours. […] At 48 hours post infection, 100 μl supernatant from each dish was assayed for virus HA titer or plaque-forming units.

[4] = system: MDCK cells; conditions: 10 mM
Method: GSH was measured in MDCK cells after infection with influenza virus either without or with 10 mM GSH.

[5] = system: Influenza A/WSN strain; conditions: 30 mM, normal human SAEC, cultured up to 72 h
Method: SAEC were cultured until 70% confluent. Cells were washed and inoculated with influenza A/WSN strain for 2 h. After washing to remove non-adherent virus, cells were cultured for up to 72 h in medium without or with GSH and assayed for virus production by HA titer.

[6] = system: Influenza A/WSN strain; conditions: normal human SAEC, plaque forming assay
[7] = system: influenza virus
[8] = system: viral proteins; conditions: 35S-methionine labeling after virus infection, without or with added compound
Method: To determine whether GSH altered viral protein synthesis and processing, cells were incubated with ^35 S-methionine to label newly synthesized proteins following virus infection either without or with added GSH. Cells were washed and lysed in SDS-PAGE buffer.

[9] = system: MDCK cells
[10] = system: MDCK cells; remark: listed apart in the source

## CC(=O)N[C@@H](CS)C(=O)O [NAC, N-Acetyl-L-cysteine, reference compound]
[1]
  Toxicity to cells: not toxic
[2]; 10 mM, 24 h
  inhibition at 10000 µM: 50%
[2]; 10 mM, 48 h post infection
  inhibition at 10000 µM: 62%
[2]; 30 mM, 24 h
  inhibition at 30000 µM: 75%
[2]; 30 mM, 48 h post infection
  inhibition at 30000 µM: 95%

## Ascorbate-2-phosphate
[3]
  Inhibition of plaque-forming units: 50%
[2]; 10 mM, 48 h post infection
  Inhibition of virus production (HA titer): 37%
[2]; 10 or 30 mM
  Protection against virus titer and infectious particle production: provided protection

## N[C@@H](CCC(=O)N[C@@H](CS)C(=O)NCC(=O)O)C(=O)O [GSH, gamma-L-Glu-L-Cys-Gly]
[4]; MDCK cells, absence of virus
  Effect on cellular GSH: did not increase cellular GSH
[4]; virus-infected MDCK cells
  Effect on loss of cellular GSH: did not prevent the loss of GSH
[5]
  Decrease of virus production (HA titer): greater than 90%
[6]
  Confirmation of decreased virus production by number of infectious particles: confirmed
[7]; 10-30 mM co-incubated with virus and MDCK cells for 2 h, washed, then 48 h
  Decrease in virus production: no decrease
[7]; added after incubation of cells with virus, 48 h, MDCK cells
  Decrease of HA titer: 85%
[7]; virus incubated 1 h with up to 30 mM before incubation with MDCK cells
  Effect on virus production after 48 h: no effect
[8]
  Patterns or amounts of labeled viral proteins: no detectable differences
[2]; 1 mM
  Decreased virus production (HA titer): 30%
[2]; 5 mM
  Decreased virus production (HA titer): 60%
[2]; 10 mM, 48 h post infection
  Inhibition of virus production (HA titer): 56%
[2]; 30 mM, 48 h post infection
  Inhibition of virus production (HA titer): 90%
[9]; no virus
  Apoptosis caused by the compound alone: did not cause apoptosis
[9]; up to 30 mM, 48 h
  Effect on apoptosis of virus infected cells: unaffected
[10]
  Toxicity to the cells: not toxic
